From patent US20070009509A1, “Antibody against nox1 polypeptide, method of diagnosing cancer with the use of nox1 gene and method of screening cancer growth inhibitor” (priority 2003, published 2007)

How the values were obtained:
[1] = system: Nox1 expression in the K-Ras-NRK cells; assay: Nox1 expression in K-Ras-NRK cells by real-time quantitative polymerase chain reaction; format: cell-based, rat; conditions: PD98059 20 μM, 100 μM, treated for 12 hours; FIG. 1(a)
Experimental: At first, rat kidney (NRK) cells and K-Ras-NRK cells (Kirstein murine sarcoma virus-transformed NRK cells) were prepared. The K-Ras-NRK cells were purchased from ATCC.
The presence or absence of Nox1 expression in the rat kidney (NRK) cells and the K-Ras-NRK cells was initially detected by real-time quantitative polymerase chain reaction. The real-time quantitative polymerase chain reaction used a forward primer of SEQ ID NO: 15, a reverse primer of SEQ ID NO: 16, and a TaqMan MGB probe of SEQ ID NO: 17.
The real-time quantitative polymerase chain reaction was performed using ABI Prism 7700 (Applied Biosystems) under reaction conditions set to defaults. Analytical values were standardized using rRNA 18S.
(§1) A series of experiments were performed for analyzing the downstream region of a Ras signaling pathway of Nox1 gene expression elevated by mutant Ras gene. In Examples 1 and 2, the cells were treated for 12 hours with PD98059 (PD: 20 μM, 100 μM), an MAPKK inhibitor, to analyze Nox1 expression in the K-Ras-NRK cells and serum- and EGF-induced Nox1 expression by real-time quantitative polymerase chain reaction.

[2] = system: Nox1 gene expression in NIH3T3 cells; assay: Serum- and EGF-induced Nox1 expression in NIH3T3 cells by real-time quantitative polymerase chain reaction; format: cell-based
Experimental: NIH3T3 cells cultured overnight under serum-free conditions were treated mitogeniclally with serum (30%) or 50 ng/ml epidermal growth factor (EGF) and then analyzed by real-time quantitative polymerase chain reaction. As a result, Nox1 gene expression was increased to 6 to 20 times within 12 hours from the initiation of the culture, as shown in FIGS. 1(c) and (d). That is, Nox1 gene expression is associated with factors that promote cell growth. This is consistent with the reports saying that both platelet-derived growth factor (PDGF) and angiotensin II induce superoxide formation and Nox1 gene expression in vascular smooth muscle cells (1 and 4).
as §1

K-Ras-NRK cells = assay: Morphology of K-Ras-NRK cells treated overnight with inhibitors; format: cell-based, rat; conditions: 20 μM DPI, 30 μM PD98059, 10 mM n-acetyl cysteine (data not shown), FIG. 13
Experimental: Diphenylene iodonium (DPI), a Nox1 inhibitor, was used to examine the influence of Nox1 gene expression on the morphologies of the cells transformed with mutant Ras. Namely, K-Ras-NRK cells and NRK cells were cultured overnight at 37° C. in a medium containing 20 μM DPI or 30 μM PD98059 under a 5% CO2-containing moisture environment to observe morphological changes.

[3] = system: Nox1 expression in the H-Ras-NIH3T3 cells; assay: Control experiment: Nox1 expression in H-Ras-NIH3T3 cells; format: cell-based; conditions: wortmannin 100 nM; data not shown
[4] = system: superoxide production in K-Ras-NRK cells; assay: Superoxide production by NBT reduction analysis; format: cell-based, rat; conditions: 40 units of superoxide dismutase, 37° C., 8 minutes
Experimental: The present inventors measured superoxide production by NBT reduction analysis using the transformed cells of Example 4 in order to evaluate the role of Nox1 in superoxide production induced by mutant Ras. In the present example, the method of Suh et al. was used in the NBT (nitroblue tetrazolium) analysis (1). Namely, 0.2 ml of a Hanks solution containing 0.25% NBT was prepared with or without 40 units of superoxide dismutase (SOD), a reactive oxygen-digesting enzyme, in which 2×10^5 cells were in turn suspended and treated at 37° C. for 8 minutes. The treated cells were separated by low-speed centrifugation and solubilized by the addition of 0.5 ml of pyridine. Absorbance at 510 nm was measured to quantify a decrease in NBT (extinction coefficient of 11,000/M/cm). The obtained data was shown in FIG. 6 with +/−s.e.m. from 3 measurements.

`COc1cccc(-c2cc(=O)c3ccccc3o2)c1N` [PD98059] was tested, and the “Nox1 expression in the K-Ras-NRK cells” value [1] was “inhibited by the PD98059 concentration-dependently”, the “EGF-induced Nox1 expression” value ([2]; 20 μM PD98059, 50 ng/ml EGF, FIG. 1(d)) was “inhibited” and the “serum-induced Nox1 expression” value ([2]; 20 μM PD98059, serum (30%), FIG. 1(c)) was “inhibited”. For the same molecule, the “morphological changes of K-Ras-NRK cells” value (K-Ras-NRK cells) was “such morphological changes were also observed”.
With `c1ccc2c(c1)[I+]c1ccccc1-2` [DPI, Diphenylene iodonium] the “morphological changes of K-Ras-NRK cells” value (K-Ras-NRK cells) was “transiently assumed a flat shape that was close to the shape of the NRK cells”.
In the case of `CC(=O)N[C@@H](CS)C(=O)O` [n-acetyl cysteine], the “morphological changes of K-Ras-NRK cells” value (K-Ras-NRK cells) is reported as “transiently assumed a flat shape that was close to the shape of the NRK cells”.
For `COC[C@H]1OC(=O)c2coc3c2[C@@]1(C)C1=C(C3=O)[C@@H]2CCC(=O)[C@@]2(C)C[C@H]1OC(C)=O` [wortmannin], the “increase in Nox1 expression in the H-Ras-NIH3T3 cells” value [3] was “did not inhibit”.
For superoxide dismutase, the “NBT reduction increased in K-Ras-NRK and K-Ras-NRK/neg-1” value [4] was “inhibited”.
